The source of these data is US6566074B1, “Methods of modulating cell attachment and migration” (The General Hospital Corporation, priority 1999, dated 2003).

The assay deals with FN−/−fibroblasts. It counts as cell-based, mouse. To be noted: Rho experiment: substrate 120 kDa CBD of fibronectin; substance added as supplement (Figs 5B-5D).

Lysophosphatidic acid [LPA]: the “% of attached cells that assemble focal adhesions and actin stress fibers (spread morphology)” value is reported as 95%.
